PMC10578927, “An unconventional gatekeeper mutation sensitizes inositol hexakisphosphate kinases to an allosteric inhibitor” (eLife, 2023)

Experiments:
IP6K1^wt [1] = target: T1, IP6K1^wt (Homo sapiens, UniProt Q92551); assay: Michaelis–Menten and Lineweaver–Burk kinetics (NMR); assay type: biochemical
T1 construct: made in house; host or cells: E. coli Arctic Express
Method: (§1) Kinetic assays were performed in D2O in a total volume of 500 µl containing the same buffer components for IP6K and IP6KA constructs as stated for the NMR activity assays above. […] If applicable, inhibitor was added as a DMSO-d6 stock at a final DMSO concentration of 1%. Otherwise, DMSO-d6 was added to the same percentage. The samples were equilibrated at 37°C for 5 min and the reaction initiated by adding 100 µM [^13C6]-InsP6. The reaction time was adjusted so that conversion would not exceed 20% to remain in the linear range for initial velocity measurements. The reaction was quenched with 38 µl 700 mM EDTA pH* 8.0 and transferred into an NMR tube before being measured on a Bruker […] 600 PLUS with an NMR pulse program developed previously ([Harmel et al., 2019]). Initial velocities were calculated by dividing the amount of generated product by the product of reaction time in seconds and mass of the kinase in mg.

IP6K1^L210V [2] = target: T2, IP6K1^L210V (Homo sapiens, UniProt Q92551, L210V); assay: as above; assay type: biochemical; details: Michaelis–Menten, read-out: KM for ATP
T2 construct: made in house; host or cells: E. coli Arctic Express
Method: as §1

IP6K1^wt [3] = target: T1, IP6K1^wt; assay: NMR activity assay, [13C6]-InsP6 to 5PP-InsP5, with ATP-regenerating system; assay type: biochemical
Description: (§2) The gatekeeper mutants L210G and L210A of IP6K1 were generated by site-directed mutagenesis and the enzymes were recombinantly expressed, analogous to the WT kinase, as MBP-fusion proteins. To assess their catalytic activity, we used an NMR assay that harnesses fully ^13C-labeled InsP6 as a substrate and enables direct product readout of 5PP-InsP5 (Figure 2b and Figure 2—figure supplement 1; [Puschmann et al., 2019]; [Harmel et al., 2019]). […] Likewise, IP6K2 suffered a drastic decline in substrate turnover upon gatekeeper mutation to glycine (Figure 2—figure supplement 2).
(§3) The NMR assay for IP6K activity was performed similarly as described before ([Harmel et al., 2019]) with slight alterations. Enzyme assays were performed in D2O in a total volume of 150 µl containing 20 mM 4-(2-hydroxyethyl)-1-piperazineethanesulfonic acid (HEPES) pH* 6.8, 50 mM NaCl, 6 mM MgCl2, 1 mM ATP, 0.2 mg/ml BSA, 1 mM DTT, 5 mM creatine phosphate and 1 U/ml creatine kinase (ATP-regenerating system) and 50 nM kinase if not otherwise stated. HEPES, NaCl, and BSA were prepared as buffer A and DTT and creatine phosphate as buffer B in D2O and were adjusted to pH* 6.8, respectively. If applicable, inhibitor was added as a DMSO-d6 stock in a twofold dilution series at a final DMSO concentration of 1% if not otherwise mentioned. Otherwise, DMSO-d6 was added to the same percentage. The samples were equilibrated at 37°C for 3 min and the reaction initiated by adding 100 µM [^13C6]-InsP6.

IP6K1^L210V [4] = target: T2, IP6K1^L210V; assay: as above; assay type: biochemical; details: for inhibition of IP6K1^L210V: 10 µM concentration
Description: as §2, §3

IP6K1^wt [5] = target: T1, IP6K1^wt; assay: High-throughput screen, reverse kinase reaction (5PP-InsP5 + ADP), Kinase-Glo luminescence; assay type: biochemical; details: dose-dependent reconfirmation
HepG2 = assay: Cytotoxicity, cell survival after 72 hr incubation; assay type: cell-based; details: HepG2, 10 µM, 72 hr incubation
Method: (§4) Supplementary file elife-88982-supp2.xlsx: Supplementary file 2. Cytotoxicity of selected hits indicated by cell survival after 72 hr incubation at 10 µM concentration. All compounds were measured in independent triplicates and errors represent standard deviation. Redox activity of selected compounds measured via a photometric surrogate assay. Reactions contained 50 mM HEPES pH 7.5, 50 mM NaCl, 200 mM DTT, and 20 µM resazurin, and were incubated for 1 hr at 37°C.

HEK293 = assay: Cytotoxicity, cell survival after 72 hr incubation; assay type: cell-based; details: HEK293, 10 µM, 72 hr incubation
Method: as §4

IP6K1^L210V [6] = target: T2, IP6K1^L210V; assay: High-throughput screen, reverse kinase reaction (5PP-InsP5 + ADP), Kinase-Glo luminescence; assay type: biochemical
Description: Although the NMR assay described above provides direct product detection and the ability to distinguish the PP-InsP isomers ([Harmel et al., 2019]), it is inherently slow and thus not compatible with a high-throughput screen. The use of luminescence-based readouts of ATP consumption to measure IP6K activity is error-prone due to the kinase’s unusually low affinity for ATP, the sensitivity to the ATP/ADP ratio, and its inherent ATPase activity ([Wundenberg et al., 2014]; [Voglmaier et al., 1996]). Nevertheless, we were able to take advantage of these properties by examining the reverse reaction of IP6K1 with the Kinase-Glo assay, where 5PP-InsP5 and ADP are converted to InsP6 and ATP (Figure 3a).
The following solutions were prepared as 4× stock solutions: kinase buffer (HEPES pH 7.4, NaCl, BSA, MgCl2, Tween-20, DTT, and IP6K1^L210V), DMSO/inhibitor, ADP, and 5PP-InsP5. Final concentrations after optimization were 1 mM ADP, 20 mM HEPES, 50 mM NaCl, 0.2 mg/ml BSA, 2 mM MgCl2, 0.05% Tween-20, 1 mM DTT, 250 nM IP6K1^L210V, and 50 μM 5PP-InsP5. The reactions were carried out in 384-well plates following this procedure. 5 µl 4× kinase buffer (buffer only for no kinase controls), 5 µl 4× DMSO or inhibitor and 5 µl 4× ADP solution were subsequently added to all wells. After 10 min equilibration, 5 μl 4× 5PP-InsP5 were added to start the reaction (milli-Q water for negative controls). After 3 hr at room temperature, 20 µl of Promega Kinase-Glo Plus reagent were added and the luminescence read out with a Tecan Infinite M Plex reader using 100-ms exposure time after 10 min of equilibration.
ADP was prepared in a 2× stock solution in milli-Q water and the pH adjusted to 7.0. The following solutions were prepared as 4× stock solutions: kinase buffer (HEPES pH 7.4, NaCl, BSA, MgCl2, Tween-20, DTT, and IP6K1^L210V) and 5PP-InsP5. Final concentrations were 1 mM ADP, 20 mM HEPES, 50 mM NaCl, 0.2 mg/ml BSA, 2 mM MgCl2, 0.05% Tween-20, 1 mM DTT, 250 nM IP6K1^L210V, and 50 µM 5PP-InsP5. The reactions were carried out in 384-well plates following this procedure. 10 µl 2× ADP solution were added to all wells, then 0.2 µl DMSO or compound (1 mM in DMSO) were added followed by the addition of 5 µl 4× kinase buffer. For dose–response curves, compounds were added in serial dilution (twofold serial dilutions in DMSO across multiple plates prior to compound transfer to assay plates, 9 concentrations in total). After 10 min equilibration, 5 µl 4× 5PP-InsP5 were added to start the reaction (milli-Q water for negative controls). After 3 hr at room temperature, 20 µl of Promega Kinase-Glo Plus reagent were added and the luminescence read out with a Tecan Infinite M Plex or Perkin Elmer EnVision reader using 100ms exposure time after 10 min of equilibration. In the counter screen, dose–response curves were measured in the absence of kinase and presence of 50 µM ATP.

IP6K = details: Figure 1b; ref Padmanabhan et al., 2009 (TNP); Wormald et al., 2019 (Barrow-24); Moritoh et al., 2021; Terao et al., 2018 (SC-919); cited from earlier work

T1 sequence (Q92551 whole entry): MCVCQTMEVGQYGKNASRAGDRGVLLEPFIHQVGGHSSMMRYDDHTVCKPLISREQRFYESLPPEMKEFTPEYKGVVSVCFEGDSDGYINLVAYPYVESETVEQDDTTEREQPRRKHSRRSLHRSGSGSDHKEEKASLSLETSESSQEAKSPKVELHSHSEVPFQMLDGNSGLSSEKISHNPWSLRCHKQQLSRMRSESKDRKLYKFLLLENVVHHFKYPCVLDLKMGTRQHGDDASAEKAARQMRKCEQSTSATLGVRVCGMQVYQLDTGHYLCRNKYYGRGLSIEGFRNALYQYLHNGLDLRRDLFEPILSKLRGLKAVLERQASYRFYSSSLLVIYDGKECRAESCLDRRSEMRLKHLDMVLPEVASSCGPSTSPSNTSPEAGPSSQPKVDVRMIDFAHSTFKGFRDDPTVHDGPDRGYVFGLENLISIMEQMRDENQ
T2 sequence (Q92551 whole entry L210V): as the sequence (Q92551 whole entry) above, with L210V counted along it

Nc1ncnc2c1ncn2[C@@H]1O[C@H](COP(=O)(O)OP(=O)(O)OP(=O)(O)O)[C@@H](O)[C@H]1O [ATP]
Km (IP6K1^wt [1]; Michaelis–Menten, read-out: KM for ATP): 186 ± 23 µM | Km (IP6K1^L210V [2]): 412 ± 81 µM

Cn1c(=O)n(-c2ccc(C(C)(C)C#N)cc2)c2c3cc(-c4cnc5ccccc5c4)ccc3ncc21 [BEZ235, reference compound]
inhibitory activity against IP6K1^wt (IP6K1^wt [3]; 10 µM concentration): none of these compounds exhibited any inhibitory activity | inhibition of IP6K1^L210V (IP6K1^L210V [4]; NMR assay): inhibition of IP6K1^L210V was not observed either

O=C1c2ccccc2C(=O)N1c1ccc(-c2nc3ccc(N4C(=O)c5ccccc5C4=O)cc3[nH]2)cc1 [A1]
inhibition of IP6K1^L210V (IP6K1^L210V [4]; NMR assay): completely inactive

O=C(O)c1ccc2c(c1)C(=O)N(c1ccc(-c3nc4ccccc4[nH]3)cc1)C2=O [A2]
inhibition of IP6K1^L210V (IP6K1^L210V [4]; NMR assay): inhibited IP6K1^L210V, albeit with severely reduced potency

O=c1c(O)c(-c2ccc(O)c(O)c2)oc2cc(O)cc(O)c12 [compound 405356, quercetin, reference compound]
IC50 (IP6K1^wt [5]): 12.1 µM | Cell number (%) (HepG2): 65.9 ± 16.9% | Cell number (%) (HEK293): 104.0 ± 1.4% | IC50 (IP6K1^L210V [6]; Kinase-Glo, reverse reaction, dose-dependent reconfirmation): 2.86 µM | Z-score (IP6K1^L210V [6]; primary screen, IP6K1^L210V): -14.6 | %Activity (IP6K1^L210V [6]; primary screen, residual activity of IP6K1^L210V): 7.8%

O=[N+]([O-])c1ccc(CNc2nc(NCc3cccc(C(F)(F)F)c3)nc3[nH]cnc23)cc1 [TNP, N2-(m-trifluorobenzyl)-N6-(p-nitrobenzyl)purine, reference compound]
mechanism of inhibition (Lineweaver–Burk) (IP6K1^wt [1]; versus ATP): competitive mechanism of action | IC50 (IP6K): 0.47 µM | IC50 (IP6K1^wt [3]; Figure 4—figure supplement 2b): 2.15 µM | difference in potency against IP6K1^wt and IP6K1^L210V (IP6K1^L210V [4]; NMR IC50 curves): no significant difference in potency | IC50 (IP6K1^L210V [4]; NMR assay, Figure 4—figure supplement 2b): 1.41 µM
